Experimental data taken from patent US20080063668A1, “Nitroimidazole and terconazole composition and method” (priority 2006, published 2008).

What was measured:
Experiment in all cases: Inhibition of bacteria growth, drug dilution tubes, anaerobic
Format in all cases: cell-based
Set-up in all cases: key: (+) for growth; (−) for no growth; (±) for suboptimal growth after an initial observation of growth
[1] = system: Bacteroides fragilis ATCC 25285
Description: (§1) Serial dilutions of tinidazole and terconazole were prepared by adding measured amounts of each substance to water (both individually and in combination). Seven bacterial organisms that are common pathogens in bacterial vaginosis were grown anaerobically in the medium as listed in Table 4 under a N2/H2/CO2 (85:5:10) head space atmosphere. [table] These cultures were diluted to a 0.5 McFarland standard prior to inoculation of drug dilution tubes. One (1) mL of the 0.5 McFarland preparation was inoculated to an anaerobically prepared test tube containing 0.8 mL of Difco anaerobic medium (DAMM) and 0.2 mL of appropriate diluted antimicrobial or antimicrobial combination for a total of 2 mL. The inoculated tubes were then incubated at 37° C. and monitored daily for growth. Growth was scored with a (+) for growth, (−) for no growth, and (±) for suboptimal growth after an initial observation of growth. Tinidazole is abbreviated as TNZ and terconazole is abbreviated as TER in Tables 5 through 11.

[2] = system: Mobiluncus curtisii var. holmesii ATCC 35242
Description: as §1

[3] = system: Mobiluncus curtisii var. curtisii ATCC 35241
Description: as §1

Q: What does the source list for `CC(C)N1CCN(c2ccc(OCC3COC(Cn4cncn4)(c4ccc(Cl)cc4Cl)O3)cc2)CC1` (stereo not drawn) [TER, cis-1-[p[[2-(2,4-dichlorophenyl)-2-(1 H-1,2,4-triazol-1-ylmethyl)-1,3-dioxolan-4-yl]methoxy]phenyl]-4-isopropylpiperazine]?
A: growth ([1]; TER 3.1 μg/ml, DAY 1): (+); growth ([1]; TER 3.1 μg/ml, DAY 2): (+); growth ([1]; TER 3.1 μg/ml, DAY 3): (+); growth ([1]; TER 3.1 μg/ml, DAY 4): (+); growth ([1]; TER 3.1 μg/ml, DAY 5): (+); growth ([1]; TER 6.2 μg/ml, DAY 1): (+); growth ([1]; TER 6.2 μg/ml, DAY 2): (+); growth ([1]; TER 6.2 μg/ml, DAY 3): (+); growth ([1]; TER 6.2 μg/ml, DAY 4): (+); growth ([1]; TER 6.2 μg/ml, DAY 5): (+); growth ([1]; TER 12.5 μg/ml, DAY 1): (+); growth ([1]; TER 12.5 μg/ml, DAY 2): (+); growth ([1]; TER 12.5 μg/ml, DAY 3): (+); growth ([1]; TER 12.5 μg/ml, DAY 4): (+); growth ([1]; TER 12.5 μg/ml, DAY 5): (+); growth ([1]; TER 25 μg/ml, DAY 1): (+); growth ([1]; TER 25 μg/ml, DAY 2): (+); growth ([1]; TER 25 μg/ml, DAY 3): (+); growth ([1]; TER 25 μg/ml, DAY 4): (+); growth ([1]; TER 25 μg/ml, DAY 5): (+); growth ([1]; TER 50 μg/ml, DAY 1): (+); growth ([1]; TER 50 μg/ml, DAY 2): (+); growth ([1]; TER 50 μg/ml, DAY 3): (+); growth ([1]; TER 50 μg/ml, DAY 4): (+); growth ([1]; TER 50 μg/ml, DAY 5): (+); growth ([1]; TER 100 μg/ml, DAY 1): (+); growth ([1]; TER 100 μg/ml, DAY 2): (+); growth ([1]; TER 100 μg/ml, DAY 3): (+); growth ([1]; TER 100 μg/ml, DAY 4): (+); growth ([1]; TER 100 μg/ml, DAY 5): (+); growth ([1]; TER 200 μg/ml, DAY 1): (−); growth ([1]; TER 200 μg/ml, DAY 2): (−); growth ([1]; TER 200 μg/ml, DAY 3): (+); growth ([1]; TER 200 μg/ml, DAY 4): (+); growth ([1]; TER 200 μg/ml, DAY 5): (+); growth ([1]; TER 400 μg/ml, DAY 1): (−); growth ([1]; TER 400 μg/ml, DAY 2): (−); growth ([1]; TER 400 μg/ml, DAY 3): (−); growth ([1]; TER 400 μg/ml, DAY 4): (−); growth ([1]; TER 400 μg/ml, DAY 5): (−); growth ([1]; TER 800 μg/ml, DAY 1): (−); growth ([1]; TER 800 μg/ml, DAY 2): (−); growth ([1]; TER 800 μg/ml, DAY 3): (−); growth ([1]; TER 800 μg/ml, DAY 4): (−); growth ([1]; TER 800 μg/ml, DAY 5): (−); growth ([2]; TER 3.1 μg/ml, DAY 1): (+); growth ([2]; TER 3.1 μg/ml, DAY 2): (+); growth ([2]; TER 3.1 μg/ml, DAY 3): (+); growth ([2]; TER 3.1 μg/ml, DAY 4): (+); growth ([2]; TER 3.1 μg/ml, DAY 5): (+); growth ([2]; TER 6.2 μg/ml, DAY 1): (+); growth ([2]; TER 6.2 μg/ml, DAY 2): (+); growth ([2]; TER 6.2 μg/ml, DAY 3): (+); growth ([2]; TER 6.2 μg/ml, DAY 4): (+); growth ([2]; TER 6.2 μg/ml, DAY 5): (+); growth ([2]; TER 12.5 μg/ml, DAY 1): (+); growth ([2]; TER 12.5 μg/ml, DAY 2): (+); growth ([2]; TER 12.5 μg/ml, DAY 3): (+); growth ([2]; TER 12.5 μg/ml, DAY 4): (+); growth ([2]; TER 12.5 μg/ml, DAY 5): (+); growth ([2]; TER 25 μg/ml, DAY 1): (+); growth ([2]; TER 25 μg/ml, DAY 2): (+); growth ([2]; TER 25 μg/ml, DAY 3): (+); growth ([2]; TER 25 μg/ml, DAY 4): (+); growth ([2]; TER 25 μg/ml, DAY 5): (+); growth ([2]; TER 50 μg/ml, DAY 1): (+); growth ([2]; TER 50 μg/ml, DAY 2): (+); growth ([2]; TER 50 μg/ml, DAY 3): (+); growth ([2]; TER 50 μg/ml, DAY 4): (+); growth ([2]; TER 50 μg/ml, DAY 5): (+); growth ([2]; TER 100 μg/ml, DAY 1): (+); growth ([2]; TER 100 μg/ml, DAY 2): (+); growth ([2]; TER 100 μg/ml, DAY 3): (+); growth ([2]; TER 100 μg/ml, DAY 4): (+); growth ([2]; TER 100 μg/ml, DAY 5): (+); growth ([2]; TER 200 μg/ml, DAY 1): (+); growth ([2]; TER 200 μg/ml, DAY 5): (+); growth ([2]; TER 400 μg/ml, DAY 1): (+); growth ([2]; TER 400 μg/ml, DAY 5): (+); growth ([2]; TER 800 μg/ml, DAY 1): (+); growth ([2]; TER 800 μg/ml, DAY 5): (+); growth ([3]; TER 3.1 μg/ml, DAY 1): (+); growth ([3]; TER 3.1 μg/ml, DAY 2): (+); growth ([3]; TER 3.1 μg/ml, DAY 3): (+); growth ([3]; TER 3.1 μg/ml, DAY 4): (+); growth ([3]; TER 3.1 μg/ml, DAY 5): (+); growth ([3]; TER 6.2 μg/ml, DAY 1): (+); growth ([3]; TER 6.2 μg/ml, DAY 2): (+); growth ([3]; TER 6.2 μg/ml, DAY 3): (+); growth ([3]; TER 6.2 μg/ml, DAY 4): (+); growth ([3]; TER 6.2 μg/ml, DAY 5): (+); growth ([3]; TER 12.5 μg/ml, DAY 1): (+); growth ([3]; TER 12.5 μg/ml, DAY 2): (+); growth ([3]; TER 12.5 μg/ml, DAY 3): (+); growth ([3]; TER 12.5 μg/ml, DAY 4): (+); growth ([3]; TER 12.5 μg/ml, DAY 5): (+); growth ([3]; TER 25 μg/ml, DAY 1): (+); growth ([3]; TER 25 μg/ml, DAY 2): (+); growth ([3]; TER 25 μg/ml, DAY 3): (+); growth ([3]; TER 25 μg/ml, DAY 4): (+); growth ([3]; TER 25 μg/ml, DAY 5): (+); growth ([3]; TER 50 μg/ml, DAY 1): (+); growth ([3]; TER 50 μg/ml, DAY 2): (+); growth ([3]; TER 50 μg/ml, DAY 3): (+); growth ([3]; TER 50 μg/ml, DAY 4): (+); growth ([3]; TER 50 μg/ml, DAY 5): (+); growth ([3]; TER 100 μg/ml, DAY 1): (+); growth ([3]; TER 100 μg/ml, DAY 2): (+); growth ([3]; TER 100 μg/ml, DAY 3): (+); growth ([3]; TER 100 μg/ml, DAY 4): (+); growth ([3]; TER 100 μg/ml, DAY 5): (+); growth ([3]; TER 200 μg/ml, DAY 1): (−); growth ([3]; TER 200 μg/ml, DAY 2): (+); growth ([3]; TER 200 μg/ml, DAY 5): (+); growth ([3]; TER 400 μg/ml, DAY 1): (−); growth ([3]; TER 400 μg/ml, DAY 2): (−); growth ([3]; TER 400 μg/ml, DAY 3): (−); growth ([3]; TER 400 μg/ml, DAY 4): (−); growth ([3]; TER 400 μg/ml, DAY 5): (+); growth ([3]; TER 800 μg/ml, DAY 1): (−); growth ([3]; TER 800 μg/ml, DAY 2): (−); growth ([3]; TER 800 μg/ml, DAY 3): (−); growth ([3]; TER 800 μg/ml, DAY 4): (−); growth ([3]; TER 800 μg/ml, DAY 5): (+)
